One experiment has as its system ILM of bovine explants. The experiment in a line: Retinal entry of 100 nm polystyrene nanoparticles (Fluospheres) after ICG-mediated ILM perforation. The following applies: ICG 1 mg/ml, 0,4 J/cm^2 laser. An excerpt: FIG. 5: Images of cryosections of bovine explants stained for nuclei in the retina by Hoechst (indicated in grey - low contrast). […] Scale = 25 µm
It was further tested whether ICG-mediated ILM ablation allowed to deliver therapeutics to the retina.

Experiment [1] has as its system human ILM. The experiment in a line: Inherent affinity of free ICG for the ILM. The class given is binding. The settings on record: preliminary data.
Experiment [2] concerns retinal surface of bovine retinal explants (Müller cell endfeet, nerve fibers). Kind of experiment: Retinal surface imaging with Mitotracker Deep Red and Hoechst after ICG photoporation. The following applies: ICG 0,1 mg/ml, 0,4 J/cm^2 laser. The procedure:
FIG. 4: Images of the retinal surface after staining with Mitotracker and Hoechst. […] Scale bar = 25 µm.
Furthermore, a method was tested to look at the retinal surface in more detail, allowing to visualize several types of structures such as nerve fibers, blood vessels, and Müller cells (cell type located right underneath the ILM). To this end, intact retinal explants were stained with a dye mixture of Mitotracker Deep Red and Hoechst, which allows to identify these structures. […] Indeed, in untreated explants, the retinal surface was neatly organized: a mosaic of Müller cell endfeet intertwined with bundles of nerve fibers.

For experiment [3], the system named is human ILM. Kind of experiment: ILM ablation by ICG photoporation in human explants, cryosections stained for Collagen IV. The following applies: 1 mg/ml ICG, 0,4 J/cm2 laser fluence. As for the experimental part:
FIG. 6: Images of cryosections of human explants stained for nuclei in the retina by Hoechst staining (indicated in grey - low contrast) and showing the ILM stained by antibodies against Collagen IV (indicated in white); scale = 25 µm. Top row: untreated; bottom row: treatment with 1 mg/ml ICG and 0,4 J/cm^2 laser fluence. Absence of the ILM is indicated by a dashed line.
Therefore, the approach was tested on human samples. Since the thickness of the ILM is also age dependent, we investigated human ILM ablation in younger and older patients. […] As illustrated in the top row, the ILM in untreated explants becomes gradually thicker with increasing age, which is an observation in accordance with literature (FIG. 6, untreated). Treated samples (bottom row) were treated with 1 mg/ml ICG and 0,4 J/cm2 laser fluence. Absence of the ILM is indicated by a dashed line.

Experiment [4] deals with ILM of bovine retinal explants. The experiment in a line: ILM perforation by ICG photoporation, cryosections stained for Collagen IV. The settings on record: ICG 1 mg/ml, 0,4 J/cm^2 800 nm 2 ps laser pulses. The source says: FIG. 2: Images of cryosections of conventional bovine explants stained for nuclei in the retina by Hoechst staining (indicated in grey - low contrast) and showing the ILM stained by antibodies against Collagen IV (indicated in white). […] The study aimed to perforate the ILM by photoporation. Thereto, a vital dye, in particular Indocyanine Green (ICG), was delivered to the ILM after which the retina was illuminated with a powerful but extremely short pulse of 800 nm laser light. Without being bound to theory, the absorbance of light by the ICG can result in the evaporation of the surrounding water, creating vapour nanobubbles (VNBs) which upon collapse can cause damage to neighbouring tissue such as in particular the ILM. To generate ILM perforation, an ICG solution (1 mg/ml) was applied on the ILM surface of bovine retinal explants followed by laser scanning of the tissue with 2 picosecond pulses.

Entries after “also recorded” stand apart in the source; their conditions may differ.

For `CC1(C)C(/C=C/C=C/C=C/C=C2\N(CCCCS(=O)(=O)O)c3ccc4ccccc4c3C2(C)C)=[N+](CCCCS(=O)(=O)[O-])c2ccc3ccccc3c21` [ICG, Indocyanine Green], the “retinal entry of 100 nm polystyrene nanoparticles” value in the experiment with ILM of bovine explants was “high retinal uptake; also recorded: massive entry of the nanoparticles into the retina”. In addition, the “inherent affinity for the human ILM versus the bovine ILM” value in the experiment on human ILM [1] was “remarkably higher than for the bovine ILM”. Moreover, the “retinal surface organization (Mitotracker and Hoechst staining)” value in experiment [2] is given as “greatly disturbed; also recorded: way more disorganized”. In addition, the “ILM integrity on cryosections” value is “fragmented ILM” in the experiment on human ILM [3] (human explant patient one), “completely absent” in the experiment with human ILM [3] (human explant patient three), “completely absent” in the experiment on human ILM [3] (human explant patient two) and “ILM ablation; also recorded: most of the ILM was absent with only small parts remaining” in experiment [4].

For the origin of these results see US20230293348A1, “DYES FOR USE IN A METHOD OF PHOTOPORATION OF THE INNER LIMITING MEMBRANE” (UNIVERSITEIT GENT, priority 2020, published 2023).
